# In patent publication US20110237658A1, “COMPOUND AND METHOD FOR THE TREATMENT OF PAIN” (KRISHANI BIOSCIENCES (P) LTD, priority 2010, published 2011):
# Tested on: spinal nerve ligation model for neuropathic pain in rats
# Experiment: Spinal nerve ligation (Chung) model of neuropathic pain, Von Frey test
# Format: in vivo
# Details: 150 mg/kg IP once daily from study day 14 to 21; 2 hours post-treatment on study days 14 and 21; male SD rats
# Description: Experimental animals were male SD rats with a starting weight of 230-250 grams. Total number of animals were n=90 for surgery and n=60 after selection. The animals were caged in groups of 3 in a temperature and humidity controlled area. They were maintained on a 12 hr light/dark cycle and had ad libitum access to food and water.
# Neuropathic pain inducement was done by following principles of Chung induced model. The SD rats were anesthetized using ketamine/xylazine sodium. The rats were shaved and placed in prone position for surgery. The L5-L6 spinal nerves were surgically litigated. The rats were returned to their cages for recuperation and recovery under comfortable warm conditions using heat lamps.
# After seven days of surgery a pre selection was performed. Animals that indicate signs of post operative pain were to be selected to proceed. Pain is detected by observing when one or more of the criteria are met as follows. Licking of the operated paw, accompanied by gentle biting or pulling on the nails with the mouth; placing the leg in the air; bearing weight on the side contra-lateral to the nerve injury; deformities of the hind paw and abnormal posture and walking; weakness of the left hind paw. […] However, the animal must be able to move its leg to ensure that the L4 spinal nerve is intact. If the animal cannot move its leg, it was excluded from the study. […]
smiles,measurement,value
CC(OC(=O)CCCC[C@@H]1CCSS1)OC(=O)NC(C)C(C)COC(=O)c1ccccc1 (stereo partly shown) [final compound of formula 1],efficacy as reflected in the parameters of mechanical allodynia (Von Frey),effective
